# Earlier results, collected in patent publication US20070237815A1 (priority 2006, published 2007).
# Details: in the elderly
structure (smiles),measurement,value
NS(=O)(=O)c1cc(C2(O)NC(=O)c3ccccc32)ccc1Cl (stereo not shown) [chlorthalidone],half-life,approximately 72 hours
